For data set [1], the system named is L. (V.) braziliensis intramacrophage amastigotes. Description: Treatment of RAW 264.7 macrophages infected with L. (V.) braziliensis (intramacrophage amastigotes). It counts as cell-based, Leishmania (Viannia) braziliensis. The following applies: RAW 264.7 infected with L. (V.) braziliensis, 72 h of treatment. As for the experimental part: RAW 264.7 macrophages (1 × 10^6 cells/mL) were seeded in 24-well plates containing sterile glass slides, and approximately 500 μL of supplemented DMEM medium was added. The plates were then incubated at 37 °C with 5% CO2 for 4 h to facilitate cell adhesion. Following the adhesion period, promastigotes (1 × 10^7) in the stationary growth phase were introduced into the wells for infection. The plates were then incubated for an additional 4 h to allow infection to take place. Afterward, the medium was carefully removed, and the wells were washed three times with PBS to eliminate any nonadherent cells. Fresh medium containing serial concentrations of the test substances, ranging from 0.78 to 25 μmol/L, was added to the wells. Additionally, a range of concentrations of glucantime (25 to 800 μmol/L) was included for comparison. The treatment was carried out for 72 h in an incubator at 37 °C with 5% CO2. At the end of the 72 h treatment period, the glass lamina was removed from each well and stained using rapid panoptic stain (Laborklin®, Curitiba, Paraná, Brazil). The stained samples were mounted on permanent slides using Entelan® (Sigma-Aldrich, St. Louis, MO, USA), and antileishmanial activity was assessed by measuring the infection rate and counting the number of amastigotes per macrophage. Quantification was performed using light microscopy at a magnification of 1000×, and a total of 300 macrophages per lamina were evaluated. As a negative control, half DMEM containing 0.2% DMSO was used.

The subject of data set [2] is L. (L.) amazonensis promastigotes. More on the design: method as in PMID 30913526. The note with it: read-out: IC50 antipromastigote activity; cited from earlier work.
Data set [3] is described as follows: Cytotoxicity against RAW 264.7 macrophages (MTT). It counts as cell-based, murine. The note with it: mouse, RAW 264.7 macrophages, pH 7.2, RAW 264.7 cells. As for the experimental part:
Murine macrophage cell line RAW 264.7 was used in this study. The cells were cultured in 75 cm^2 cell culture flasks (Corning Glass Workers, New York, NY, USA) using DMEM medium with a pH of 7.2, supplemented with 10% FBS and 1% antibiotic solution (containing 100 U/mL penicillin and 100 μg/mL streptomycin). The cells were maintained in an incubator at a temperature of 37 °C with 5% CO2. The spikes were performed after the cells reached complete confluence, characterized by the formation of a monolayer of cells around 48 h to 72 h after packaging.
(§1) In this study, we utilized the RAW 264.7 macrophages line (obtained from ATCC: code TIB-71™),human embryonic kidney cell line HEK-293 (obtained from ATCC: code CRL-1573™)and two human cancer cell cultures: the colon carcinoma cell line CaCo-2 and the adenocarcinomic human alveolar basal epithelial cell A549 (also obtained from ATCC: codesHTB-37™ and CCL-185™).These cell lines were cultured in Dulbecco’s modified Eagle medium (DMEM) from Gibco by Life Technologies (LifeTech Austria, Vienna, Austria). The growth medium was supplemented with 5% fetal bovine serum (FBS) from Gibco by Life Technologies and 1% penicillin-streptomycin obtained from Sigma-Aldrich (Vienna, Austria). The cells were maintained at 37 °C with 5% CO2 in a humidified incubator, and regular checks for mycoplasma contamination were carried out.
(§2) For experimental purposes, the cells were seeded into 96-well plates at a density of 2 × 10^4 cells/mL, with each well containing 100 µL of the cell suspension. The cells were allowed to adhere for 24 h. Subsequently, they were exposed to 100 µL of the test compounds, which were diluted in DMEM, with concentrations ranging from 2 to 600 µmol/L. The stock solutions of these compounds were prepared in water with 10% (v/v) dimethyl sulfoxide (DMSO) and stored at 4 °C.
(§3) To assess cell viability after 72 h of exposure to the compounds, we employed a 3-(4,5-dimethylthiazol-2-yl)-2,5-diphenyltetrazolium bromide (MTT)-based vitality assay kit (EZ4U, Biomedica, Vienna, Austria). Briefly, we added 20 µL of the EZ4U assay solution to each well and incubated the plates in the dark for 2 h. Subsequently, we measured the absorbance using a microplate reader at 450 nm, with 620 nm as a reference to reduce unspecific background values. For reliability, all experiments were conducted three times with triplicate samples.
The different mean concentrations for promastigotes (IC50) and macrophages (CC50) were calculated using nonlinear regression. For comparisons between groups, ANOVA analysis of variance was performed followed by Tukey’s test in a statistical program, taking the p-value < 0.05 as the maximum level of statistical significance.

In data set [4] the test system is L. (L.) infantum promastigotes. More on the design: method as in PMID 36977142. The note with it: read-out: IC50 antipromastigote activity; cited from earlier work.
Data set [5] in a line: Cell toxicity, MTT-based EZ4U assay, CaCo-2. The following applies: human, CaCo-2 cells (colon carcinoma); for viability at 72 h, 2.34 µmol/L: CACO2, 2.34 µmol/L; for viability at 72 h, 4.6875 µmol/L: CACO2, 4.6875 µmol/L; for viability at 72 h, 9.375 µmol/L: CACO2, 9.375 µmol/L; for viability at 72 h, 18.75 µmol/L: CACO2, 18.75 µmol/L; for viability at 72 h, 37.5 µmol/L: CACO2, 37.5 µmol/L; for viability at 72 h, 75 µmol/L: CACO2, 75 µmol/L; for viability at 72 h, 150 µmol/L: CACO2, 150 µmol/L; for viability at 72 h, 300 µmol/L: CACO2, 300 µmol/L; for viability at 72 h, 600 µmol/L: CACO2, 600 µmol/L. The protocol: as §1, §2, §3

For the next data set, the system named is A549. The data set can be described thus: Cell toxicity, MTT-based EZ4U assay, A549. Set-up: species or system human. The note with it: A549, 1.56–500 µmol/L. As for the experimental part: as §1
(§4) For experimental purposes, the cells were seeded into 96-well plates at a density of 2 × 10^4 cells/mL, with each well containing 100 µL of the cell suspension. The cells were allowed to adhere for 24 h. […] The stock solutions of these compounds were prepared in water with 10% (v/v) dimethyl sulfoxide (DMSO) and stored at 4 °C.
as §3

The nature of data set [6]: Cell toxicity, MTT-based EZ4U assay, A549. More on the design: species or system human. The following applies: human, A549 cells (alveolar basal epithelial adenocarcinoma), 72 h; for viability at 72 h, 2.34 µmol/L: A549, 2.34 µmol/L; for viability at 72 h, 4.6875 µmol/L: A549, 4.6875 µmol/L; for viability at 72 h, 9.375 µmol/L: A549, 9.375 µmol/L; for viability at 72 h, 18.75 µmol/L: A549, 18.75 µmol/L; for viability at 72 h, 37.5 µmol/L: A549, 37.5 µmol/L; for viability at 72 h, 75 µmol/L: A549, 75 µmol/L; for viability at 72 h, 150 µmol/L: A549, 150 µmol/L; for viability at 72 h, 300 µmol/L: A549, 300 µmol/L; for viability at 72 h, 600 µmol/L: A549, 600 µmol/L. As for the experimental part:
as §1, §4, §3

The mark [7] stands for this setting: Leishmania braziliensis, RAW264.7, 72 h.

Each structure is given as a SMILES string.

Take `CC(C)(C)c1ccc(N/C(=N\C(=O)c2ccccc2)NCc2ccccc2)cc1` [LQOF-G6, (Z)-N-benzoyl-N-benzyl-N-(4-tert-butylphenyl)guanidine]: the EC50 in data set [1] (setting [7]) was found to be 3.89 µM; in data set [1], 3.9 ± 0.1 µM. Further, the half-maximal inhibitory concentration (IC50) in data set [2] was 25.9 µM; in data set [4] it was 24.4 µM. The CC50 at 72 h in data set [3] came to 154 ± 2.3 µM.

In the case of `O=C(/N=C(/NCc1ccccc1)Nc1ccc(Br)cc1)c1ccccc1` [LQOF-G2, (Z)-N-benzoyl-N-benzyl-N-(4-bromophenyl)guanidine], it took 4.21 µM to reach a half-maximal effect in data set [1] (setting [7]) (EC50). The molecule further yielded an EC50 in data set [1] of 4.2 ± 0.5 µM. For the same molecule, the concentration for half-maximal inhibition (IC50) in data set [2] was 19.6 µM. Moreover, in data set [5], the viability at 72 h, 2.34 µmol/L was 106 ± 3.6%; the viability at 72 h, 4.6875 µmol/L was 109 ± 13.6%; the viability at 72 h, 9.375 µmol/L was determined as 109 ± 14.7%; the viability at 72 h, 18.75 µmol/L was found to be 103 ± 5.7%. In data set [5], the viability at 72 h, 37.5 µmol/L was found to be 97 ± 4.9%; the viability at 72 h, 75 µmol/L was found to be 99 ± 6.4%; the viability at 72 h, 150 µmol/L was 107 ± 5.3%; the viability at 72 h, 300 µmol/L was found to be 103 ± 6.6%. The viability at 72 h, 600 µmol/L in data set [5] came to 119 ± 8.8%. The CC50 at 72 h in data set [3] is 164 ± 2.9 µM. For the same molecule, the concentration for half-maximal inhibition (IC50) in data set [4] was 12.7 µM. For the same molecule, the “toxic effects on cell viability” value with A549 is “No toxic effects”. Also, in data set [6], the viability at 72 h, 2.34 µmol/L worked out at 106 ± 6.3%; the viability at 72 h, 4.6875 µmol/L amounted to 109 ± 5.5%; the viability at 72 h, 9.375 µmol/L is 102 ± 10.5%; the viability at 72 h, 18.75 µmol/L came to 89 ± 5.7%. Further, in data set [6], the viability at 72 h, 37.5 µmol/L stood at 99 ± 5.2%; the viability at 72 h, 75 µmol/L was 96 ± 7.7%; the viability at 72 h, 150 µmol/L was 109 ± 4.3%; the viability at 72 h, 300 µmol/L was determined as 111 ± 9.3%. Moreover, the viability at 72 h, 600 µmol/L in data set [6] was found to be 110 ± 7.9%.

Consider `O=C(/N=C(/NCc1ccccc1)Nc1ccc([N+](=O)[O-])cc1)c1ccccc1` [LQOF-G1, (Z)-N-benzoyl-N-benzyl-N-(4-nitrophenyl)guanidine], for which, in data set [1] (setting [7]), the concentration giving a half-maximal response (EC50) stood at 3.65 µM. The molecule further registered an EC50 in data set [1] of 3.6 ± 0.2 µM. Moreover, in data set [2], the concentration for half-maximal inhibition (IC50) is 11.5 µM. Besides, in data set [5], the viability at 72 h, 2.34 µmol/L was 106 ± 8%; the viability at 72 h, 4.6875 µmol/L worked out at 109 ± 5%; the viability at 72 h, 9.375 µmol/L stood at 109 ± 7%; the viability at 72 h, 18.75 µmol/L worked out at 109 ± 10%. In addition, in data set [5], the viability at 72 h, 37.5 µmol/L worked out at 97 ± 13%; the viability at 72 h, 75 µmol/L amounted to 99 ± 7%; the viability at 72 h, 150 µmol/L was determined as 107 ± 3%; the viability at 72 h, 300 µmol/L came out at 103 ± 10%. The viability at 72 h, 600 µmol/L in data set [5] came out at 119 ± 5%. Moreover, in data set [3], half-maximal cytotoxicity (CC50 at 72 h) was put at 147 ± 2 µM. Further, the “toxic effects on cell viability” value in the data set with A549 is reported as “No toxic effects”. Moreover, in data set [6], the viability at 72 h, 2.34 µmol/L turned out to be 114 ± 7%; the viability at 72 h, 4.6875 µmol/L came to 97 ± 10.7%; the viability at 72 h, 9.375 µmol/L turned out to be 103 ± 8.8%; the viability at 72 h, 18.75 µmol/L came to 103 ± 5.7%. Further, in data set [6], the viability at 72 h, 37.5 µmol/L came out at 101 ± 8.3%; the viability at 72 h, 75 µmol/L worked out at 92 ± 9.3%; the viability at 72 h, 150 µmol/L stood at 100 ± 6.5%; the viability at 72 h, 300 µmol/L came out at 110 ± 7.2%. Also, in data set [6], the viability at 72 h, 600 µmol/L was 90 ± 8.3%.

`O=C(/N=C(/NCc1ccc(Cl)cc1Cl)Nc1ccc(Br)cc1)c1ccccc1` [LQOF-G32, (Z)-N-benzoyl-N-(2,4-di-chlorobenzyl)-N-(4-bromophenyl)guanidine]: in data set [5], the viability at 72 h, 2.34 µmol/L stood at 138 ± 8.4%; the viability at 72 h, 4.6875 µmol/L amounted to 123 ± 11.4%; the viability at 72 h, 9.375 µmol/L was 117 ± 7.3%; the viability at 72 h, 18.75 µmol/L amounted to 116 ± 9.7%. In data set [5], the viability at 72 h, 37.5 µmol/L was found to be 79 ± 6.4%; the viability at 72 h, 75 µmol/L turned out to be 53 ± 14.8%; the viability at 72 h, 150 µmol/L came out at 45 ± 10.4%; the viability at 72 h, 300 µmol/L came to 45 ± 15.9%. For the same molecule, in data set [5], the viability at 72 h, 600 µmol/L came out at 66 ± 12.3%. In addition, in data set [3], the cytotoxic concentration (CC50) at 72 h is 275.9 ± 2.4 µM. Besides, the “toxic effects on cell viability” value in the data set with A549 was “No toxic effects”. In data set [6], the viability at 72 h, 2.34 µmol/L is 109 ± 9.7%; the viability at 72 h, 4.6875 µmol/L came out at 157 ± 10.6%; the viability at 72 h, 9.375 µmol/L is 165 ± 8.1%; the viability at 72 h, 18.75 µmol/L is 121 ± 3.6%. Moreover, in data set [6], the viability at 72 h, 37.5 µmol/L was determined as 118 ± 9.9%; the viability at 72 h, 75 µmol/L is 115 ± 17.5%; the viability at 72 h, 150 µmol/L stood at 111 ± 15.5%; the viability at 72 h, 300 µmol/L is 106 ± 13.8%. Also, the viability at 72 h, 600 µmol/L in data set [6] was 95 ± 10.4%.

On to `O=C(/N=C(/NCc1ccccc1)Nc1ccc(I)cc1)c1ccccc1` [LQOF-G7, (Z)-N-benzoyl-N-benzyl-N-(4-iodophenyl)guanidine], for which the EC50 came to 8.25 µM in data set [1] (setting [7]) and 8.2 ± 0.7 µM in data set [1]. For the same molecule, the IC50 in data set [2] was 15.9 µM; in data set [4], 23.6 µM. This molecule also yielded a cytotoxic concentration (CC50) at 72 h in data set [3] of 183 ± 3.1 µM.

The record behind these values is article PMC10813298, “Evidence of Guanidines Potential against Leishmania (Viannia) braziliensis: Exploring In Vitro Effectiveness, Toxicities and of Innate Immunity Response Effects” (Biomolecules, 2023).
